Earlier results as cited in patent US9192159B2, “Azoxystrobin formulations” (priority 2006, dated 2015).

CO/C=C(/C(=O)OC)c1ccccc1Oc1cc(Oc2ccccc2C#N)ncn1 [Azoxystrobin]
Solubility in water: low solubility in water
